Reference: PMC10648852, “Molecular drivers of resistance to sulbactam-durlobactam in contemporary clinical isolates of Acinetobacter baumannii” (Antimicrobial Agents and Chemotherapy, 2023)

Key:
Assay in all cases: microbe, parasite or virus in culture
[1] = tested on: ABC clinical isolates with SUL-DUR MIC > 4 µg/mL; assay type: cell-based, Acinetobacter baumannii-calcoaceticus complex
Experimental: (§1) The following report describes the genomic analysis of these isolates for likely resistance mechanisms. Biochemical analysis of purified PBP3 and phenotypic analyses of both clinical and isogenic strains were also conducted to determine the relative impact of key resistance determinants to SUL-DUR antibacterial activity.
(§2) Antimicrobial susceptibility testing was performed using broth microdilution following standardized methods established by the Clinical Laboratory Standards Institute (CLSI) ([35], [36]). […] MIC values were interpreted using CLSI breakpoints for all antimicrobial agents except those for which CLSI breakpoints are not available ([35]). SUL-DUR was tested as twofold dilutions of sulbactam in combination with a fixed concentration of 4 µg/mL durlobactam ([35]).

[2] = tested on: A. baumannii clinical isolates; assay type: cell-based
Experimental: as §1, §2

[3] = tested on: A. nosocomialis clinical isolate; assay type: cell-based; details: isolate ARC7023 (IHMA 2118812), France, BSI, 2019
Experimental: as §1, §2

[4] = tested on: A. pittii clinical isolates; assay type: cell-based
Experimental: as §1, §2

## NCC[C@H](O)C(=O)N[C@@H]1C[C@H](N)[C@@H](O[C@H]2O[C@H](CN)[C@@H](O)[C@H](O)[C@H]2O)[C@H](O)[C@H]1O[C@H]1O[C@H](CO)[C@@H](O)[C@H](N)[C@H]1O [AMK]
[1]
  MIC50: >64 µg/mL
  MIC90: >64 µg/mL
  MIC Max: >64 µg/mL
  MIC Min: 2 µg/mL
[1]; 64 non-clonal ABC isolates, 2023 CLSI breakpoints plus FDA breakpoint of 4 µg/mL for SUL-DUR
  %NS (% non-susceptibility): 75%
[2]; isolate ARC6644 (IHMA 1420327), Mexico, UTI, 2016
  MIC: >64 µg/mL
[2]; isolate ARC6645 (IHMA 1435703), France, UTI, 2016
  MIC: 2 µg/mL
[2]; isolate ARC6646 (IHMA 1484127), United States, RTI, 2016
  MIC: >64 µg/mL
[2]; isolate ARC6647 (IHMA 1386786), Argentina, RTI, 2016
  MIC: >64 µg/mL
[2]; isolate ARC6648 (IHMA 1407634), Spain, RTI, 2016
  MIC: 4 µg/mL
[2]; isolate ARC6650 (IHMA 1457337), Argentina, RTI, 2016
  MIC: 16 µg/mL
[2]; isolate ARC6652 (IHMA 1465642), Belgium, RTI, 2016
  MIC: 4 µg/mL
[2]; isolate ARC6653 (IHMA 1308777), Vietnam, RTI, 2016
  MIC: >64 µg/mL
[2]; isolate ARC6799 (IHMA 1562935), Spain, UTI, 2017
  MIC: 64 µg/mL
[2]; isolate ARC6800 (IHMA 1557526), Turkey, RTI, 2017
  MIC: >64 µg/mL
[2]; isolate ARC6801 (IHMA 1662094), Thailand, RTI, 2017
  MIC: 32 µg/mL
[2]; isolate ARC6802 (IHMA 1557073), Spain, UTI, 2017
  MIC: >64 µg/mL
[2]; isolate ARC6803 (IHMA 1589408), Belgium, UTI, 2017
  MIC: 4 µg/mL
[2]; isolate ARC6805 (IHMA 1558650), United States, RTI, 2017
  MIC: >64 µg/mL
[2]; isolate ARC6808 (IHMA 1557168), Spain, RTI, 2017
  MIC: 2 µg/mL
[2]; isolate ARC6809 (IHMA 1699528), Guatemala, RTI, 2017
  MIC: 32 µg/mL
[2]; isolate ARC6810 (IHMA 1699548), Guatemala, RTI, 2017
  MIC: >64 µg/mL
[2]; isolate ARC6812 (IHMA 1699530), Guatemala, RTI, 2017
  MIC: 4 µg/mL
[2]; isolate ARC6813 (IHMA 1699543), Guatemala, UTI, 2017
  MIC: 32 µg/mL
[2]; isolate ARC6814 (IHMA 1699512), Guatemala, RTI, 2017
  MIC: >64 µg/mL
[2]; isolate ARC6815 (IHMA 1699513), Guatemala, RTI, 2017
  MIC: 64 µg/mL
[2]; isolate ARC6816 (IHMA 1699521), Guatemala, RTI, 2017
  MIC: >64 µg/mL
[2]; isolate ARC6817 (IHMA 1699523), Guatemala, RTI, 2017
  MIC: 16 µg/mL
[2]; isolate ARC6818 (IHMA 1683261), Thailand, RTI, 2017
  MIC: 2 µg/mL
[2]; isolate ARC6819 (IHMA 1683267), Thailand, RTI, 2017
  MIC: >64 µg/mL
[2]; isolate ARC6820 (IHMA 1647876), Argentina, RTI, 2017
  MIC: 4 µg/mL
[2]; isolate ARC6821 (IHMA 1699517), Guatemala, RTI, 2017
  MIC: 2 µg/mL
[2]; isolate ARC6822 (IHMA 1637626), Guatemala, RTI, 2017
  MIC: 8 µg/mL
[2]; isolate ARC6823 (IHMA 1620872), Greece, SSSI, 2017
  MIC: >64 µg/mL
[2]; isolate ARC6824 (IHMA 1625487), Argentina, BSI, 2017
  MIC: 64 µg/mL
[2]; isolate ARC6937 (IHMA 1562926), Spain, UTI, 2017
  MIC: 64 µg/mL
[2]; isolate ARC6950 (IHMA 1820064), Israel, RTI, 2018
  MIC: >64 µg/mL
[2]; isolate ARC6953 (IHMA 1909827), Turkey, IAI, 2018
  MIC: 8 µg/mL
[2]; isolate ARC6954 (IHMA 1838192), Guatemala, SSSI, 2018
  MIC: 16 µg/mL
[2]; isolate ARC6955 (IHMA 1825425), United States, RTI, 2018
  MIC: 64 µg/mL
[2]; isolate ARC7008 (IHMA 2009813), Thailand, BSI, 2019
  MIC: >64 µg/mL
[2]; isolate ARC7009 (IHMA 2043611), United States, UTI, 2019
  MIC: >64 µg/mL
[2]; isolate ARC7010 (IHMA 2043398), United States, RTI, 2019
  MIC: >64 µg/mL
[2]; isolate ARC7011 (IHMA 2104553), Germany, RTI, 2019
  MIC: >64 µg/mL
[2]; isolate ARC7012 (IHMA 2010001), Thailand, RTI, 2019
  MIC: >64 µg/mL
[2]; isolate ARC7013 (IHMA 1962831), Argentina, RTI, 2019
  MIC: >64 µg/mL
[2]; isolate ARC7014 (IHMA 2045328), Guatemala, IAI, 2019
  MIC: >64 µg/mL
[2]; isolate ARC7015 (IHMA 2045327), Guatemala, UTI, 2019
  MIC: 32 µg/mL
[2]; isolate ARC7016 (IHMA 2148441), Brazil, BSI, 2019
  MIC: >64 µg/mL
[2]; isolate ARC7017 (IHMA 2148446), Brazil, BSI, 2019
  MIC: 64 µg/mL
[2]; isolate ARC7018 (IHMA 2045454), Guatemala, IAI, 2019
  MIC: 32 µg/mL
[2]; isolate ARC7019 (IHMA 2114463), Thailand, RTI, 2019
  MIC: >64 µg/mL
[2]; isolate ARC7020 (IHMA 2045326), Guatemala, RTI, 2019
  MIC: >64 µg/mL
[2]; isolate ARC7021 (IHMA 1966347), Guatemala, RTI, 2019
  MIC: 64 µg/mL
[2]; isolate ARC7022 (IHMA 2045319), Guatemala, IAI, 2019
  MIC: >64 µg/mL
[2]; isolate ARC7024 (IHMA 2059448), Turkey, RTI, 2019
  MIC: >64 µg/mL
[2]; isolate ARC7025 (IHMA 2002121), Spain, RTI, 2019
  MIC: 2 µg/mL
[2]; isolate ARC7026 (IHMA 2104494), Guatemala, BSI, 2019
  MIC: 64 µg/mL
[2]; isolate ARC7082 (IHMA 2160640), Belgium, BSI, 2020
  MIC: >64 µg/mL
[2]; isolate ARC7083 (IHMA 2163687), United States, RTI, 2020
  MIC: >64 µg/mL
[2]; isolate ARC7084 (IHMA 2189596), Germany, RTI, 2020
  MIC: >64 µg/mL
[2]; isolate ARC7085 (IHMA 2205747), Guatemala, IAI, 2020
  MIC: >64 µg/mL
[2]; isolate ARC7086 (IHMA 2207563), Israel, RTI, 2020
  MIC: >64 µg/mL
[2]; isolate ARC7088 (IHMA 2215554), Turkey, BSI, 2020
  MIC: >64 µg/mL
[2]; isolate ARC7089 (IHMA 2240345), Argentina, BSI, 2020
  MIC: 2 µg/mL
[2]; isolate ARC7090 (IHMA 2244410), Poland, RTI, 2020
  MIC: >64 µg/mL
[2]; isolate ARC7091 (IHMA 2244564), Australia, RTI, 2020
  MIC: 16 µg/mL
[2]; isolate ARC7092 (IHMA 2258772), United States, BSI, 2020
  MIC: >64 µg/mL
[2]; isolate ARC7093 (IHMA 2258783), United States, RTI, 2020
  MIC: >64 µg/mL
[2]; isolate ARC7094 (IHMA 2296423), Turkey, RTI, 2020
  MIC: 64 µg/mL
[2]; isolate ARC7095 (IHMA 2320843), Turkey, BSI, 2020
  MIC: >64 µg/mL
[2]; isolate ARC7156 (IHMA 2455450), Greece, RTI, 2021
  MIC: >64 µg/mL
[2]; isolate ARC7158 (IHMA 2523738), Italy, BSI, 2021
  MIC: >64 µg/mL
[2]; isolate ARC7159 (IHMA 2456229), Malaysia, RTI, 2021
  MIC: >64 µg/mL
[2]; isolate ARC7160 (IHMA 2458626), Thailand, RTI, 2021
  MIC: >64 µg/mL
[2]; isolate ARC7161 (IHMA 2429252), Ukraine, RTI, 2021
  MIC: >64 µg/mL
[2]; isolate ARC7162 (IHMA 2411847), United States, BSI, 2021
  MIC: >64 µg/mL
[2]; isolate ARC7163 (IHMA 2477704), United States, BSI, 2021
  MIC: >64 µg/mL
[3]
  MIC: 4 µg/mL
[4]; isolate ARC6949 (IHMA 1898982), Romania, RTI, 2018
  MIC: >64 µg/mL
[4]; isolate ARC6951 (IHMA 1776233), Philippines, RTI, 2018
  MIC: 32 µg/mL
[4]; isolate ARC6952 (IHMA 1899008), Romania, RTI, 2018
  MIC: >64 µg/mL
[4]; isolate ARC7087 (IHMA 2212062), Colombia, BSI, 2020
  MIC: 8 µg/mL
